Source: article PMC6950057, “Toxicity, Pharmacokinetics, and Gut Microbiome of Oral Administration of Sesterterpene MHO7 Derived from a Marine Fungus” (Marine Drugs, 2019)
Read-outs that look alike come from different tables or passages of the source.

Test: Tissue distribution after single oral dose
Type: in vivo, mice
Conditions: for concentration at 1 h / concentration at 4 h / concentration at 8 h / concentration at 12 h / concentration at 20 h / concentration at 30 h / Kp: KM, mouse; for Kp: female
Protocol: The animals and treatment methods were the same as in the pharmacokinetic studies. Afterwards, the biological samples (n = 6 per group) were collected at 1, 4, 8, 12, 20, and 30 h, and the tissues including heart, liver, spleen, lung, kidney, stomach, intestine, brain, muscle (hind limb), fat (white adipose tissue ), reproductive organs (uterus, fallopian tube and ovary) stomach and its contents, and intestine and its contents, and the blood samples were simultaneously collected. All the tissues were washed with cold physiological saline (4 °C), excess fluid blotted, accurately weighed, and subjected to the processing as described in the sample preparation. QC samples and standard curve series solutions were prepared in the same way of blank gastrointestinal contents and livers, respectively. The concentrations of HQC, MQC, and LQC in mice tissues were 10, 1, and 0.1 μM·L^−1, respectively, and the concentrations of standard curve series solutions were 50, 25, 10, 5, 2.5, 1, 0.5, 0.25, 0.1, and 0.005 μM·L^−1 for high and low concentrations of standard curves.

[1] = 1 h, oral 500 mg·kg^−1, female mice
[2] = 4 h, oral 500 mg·kg^−1, female mice
[3] = 8 h, oral 500 mg·kg^−1, female mice
[4] = 12 h, oral 500 mg·kg^−1, female mice

## CC(C)=C/C=C/[C@H](C)[C@H]1CC[C@]2(C)C[C@@H]3C(C)=CC(=O)[C@H]3/C(C=O)=C\C[C@@H]12 [MHO7, 6-epi-ophiobolin G]
[1]
  Concentration in Brain: 0.95 ± 0.80 µg/g
  Concentration in Liver: 3.01 ± 1.53 µg/g
  Concentration in Reproductive organs: 0.88 ± 0.68 µg/g
[2]
  Concentration in Fat: 5.20 ± 3.47 µg/g
  Concentration in Liver: 1.64 ± 1.09 µg/g
  Concentration in Reproductive organs: 2.29 ± 1.80 µg/g
[3]
  Concentration in Fat: 11.15 ± 8.87 µg/g
  Concentration in Kidney: 1.66 ± 0.74 µg/g
  Concentration in Reproductive organs: 23.90 ± 11.33 µg/g
[4]
  Concentration in Kidney: 8.16 ± 6.23 µg/g
  Concentration in Lung: 2.34 ± 1.91 µg/g
  Concentration in Reproductive organs: 13.69 ± 10.29 µg/g
20 h, oral 500 mg·kg^−1, female mice
  Concentration in Reproductive organs: 1.46 ± 1.23 µg/g
30 h, oral 500 mg·kg^−1, female mice
  Concentration in Reproductive organs: 0.36 ± 0.46 µg/g
brain, 1 h, oral 500 mg·kg^−1, female mice, read-out: Concentration in Brain
  concentration at 1 h: 950 ± 800 ng/g
brain, 4 h, oral 500 mg·kg^−1, female mice, read-out: Concentration in Brain
  concentration at 4 h: 480 ± 330 ng/g
brain, 8 h, oral 500 mg·kg^−1, female mice, read-out: Concentration in Brain
  concentration at 8 h: 500 ± 150 ng/g
brain, 12 h, oral 500 mg·kg^−1, female mice, read-out: Concentration in Brain
  concentration at 12 h: 180 ± 110 ng/g
brain, 20 h, oral 500 mg·kg^−1, female mice, read-out: Concentration in Brain
  concentration at 20 h: 100 ± 50 ng/g
brain, 30 h, oral 500 mg·kg^−1, female mice, read-out: Concentration in Brain
  concentration at 30 h: 10 ± 4 ng/g
Fat (white adipose tissue), 1 h, oral 500 mg·kg^−1, female mice, read-out: Concentration in Fat
  concentration at 1 h: 740 ± 410 ng/g
Fat (white adipose tissue), 4 h, oral 500 mg·kg^−1, female mice, read-out: Concentration in Fat
  concentration at 4 h: 5200 ± 3470 ng/g
Fat (white adipose tissue), 8 h, oral 500 mg·kg^−1, female mice, read-out: Concentration in Fat
  concentration at 8 h: 11200 ± 8870 ng/g
Fat (white adipose tissue), 12 h, oral 500 mg·kg^−1, female mice, read-out: Concentration in Fat
  concentration at 12 h: 740 ± 700 ng/g
Fat (white adipose tissue), 20 h, oral 500 mg·kg^−1, female mice, read-out: Concentration in Fat
  concentration at 20 h: 340 ± 250 ng/g
Fat (white adipose tissue), 30 h, oral 500 mg·kg^−1, female mice, read-out: Concentration in Fat
  concentration at 30 h: 180 ± 160 ng/g
heart, 1 h, oral 500 mg·kg^−1, female mice, read-out: Concentration in Heart
  concentration at 1 h: 60 ± 37 ng/g
heart, 4 h, oral 500 mg·kg^−1, female mice, read-out: Concentration in Heart
  concentration at 4 h: 850 ± 510 ng/g
heart, 8 h, oral 500 mg·kg^−1, female mice, read-out: Concentration in Heart
  concentration at 8 h: 670 ± 480 ng/g
heart, 12 h, oral 500 mg·kg^−1, female mice, read-out: Concentration in Heart
  concentration at 12 h: 640 ± 300 ng/g
heart, 20 h, oral 500 mg·kg^−1, female mice, read-out: Concentration in Heart
  concentration at 20 h: 40 ± 20 ng/g
heart, 30 h, oral 500 mg·kg^−1, female mice, read-out: Concentration in Heart
  concentration at 30 h: 80 ± 10 ng/g
kidney, 1 h, oral 500 mg·kg^−1, female mice, read-out: Concentration in Kidney
  concentration at 1 h: 110 ± 60 ng/g
kidney, 4 h, oral 500 mg·kg^−1, female mice, read-out: Concentration in Kidney
  concentration at 4 h: 1630 ± 920 ng/g
kidney, 8 h, oral 500 mg·kg^−1, female mice, read-out: Concentration in Kidney
  concentration at 8 h: 1660 ± 740 ng/g
kidney, 12 h, oral 500 mg·kg^−1, female mice, read-out: Concentration in Kidney
  concentration at 12 h: 8160 ± 6230 ng/g
kidney, 20 h, oral 500 mg·kg^−1, female mice, read-out: Concentration in Kidney
  concentration at 20 h: 390 ± 90 ng/g
kidney, 30 h, oral 500 mg·kg^−1, female mice, read-out: Concentration in Kidney
  concentration at 30 h: 70 ± 10 ng/g
liver, 1 h, oral 500 mg·kg^−1, female mice, read-out: Concentration in Liver
  concentration at 1 h: 3010 ± 1530 ng/g
liver, 4 h, oral 500 mg·kg^−1, female mice, read-out: Concentration in Liver
  concentration at 4 h: 1640 ± 1090 ng/g
liver, 8 h, oral 500 mg·kg^−1, female mice, read-out: Concentration in Liver
  concentration at 8 h: 180 ± 220 ng/g
liver, 12 h, oral 500 mg·kg^−1, female mice, read-out: Concentration in Liver
  concentration at 12 h: 490 ± 370 ng/g
liver, 20 h, oral 500 mg·kg^−1, female mice, read-out: Concentration in Liver
  concentration at 20 h: 60 ± 50 ng/g
liver, 30 h, oral 500 mg·kg^−1, female mice, read-out: Concentration in Liver
  concentration at 30 h: 10 ± 10 ng/g
lung, 1 h, oral 500 mg·kg^−1, female mice, read-out: Concentration in Lung
  concentration at 1 h: 430 ± 180 ng/g
lung, 4 h, oral 500 mg·kg^−1, female mice, read-out: Concentration in Lung
  concentration at 4 h: 1060 ± 450 ng/g
lung, 8 h, oral 500 mg·kg^−1, female mice, read-out: Concentration in Lung
  concentration at 8 h: 820 ± 710 ng/g
lung, 12 h, oral 500 mg·kg^−1, female mice, read-out: Concentration in Lung
  concentration at 12 h: 2340 ± 1910 ng/g
lung, 20 h, oral 500 mg·kg^−1, female mice, read-out: Concentration in Lung
  concentration at 20 h: 160 ± 40 ng/g
lung, 30 h, oral 500 mg·kg^−1, female mice, read-out: Concentration in Lung
  concentration at 30 h: 80 ± 20 ng/g
Muscle (hind limb), 1 h, oral 500 mg·kg^−1, female mice, read-out: Concentration in Muscle
  concentration at 1 h: 310 ± 220 ng/g
Muscle (hind limb), 4 h, oral 500 mg·kg^−1, female mice, read-out: Concentration in Muscle
  concentration at 4 h: 970 ± 480 ng/g
Muscle (hind limb), 8 h, oral 500 mg·kg^−1, female mice, read-out: Concentration in Muscle
  concentration at 8 h: 640 ± 370 ng/g
Muscle (hind limb), 12 h, oral 500 mg·kg^−1, female mice, read-out: Concentration in Muscle
  concentration at 12 h: 1420 ± 800 ng/g
Muscle (hind limb), 20 h, oral 500 mg·kg^−1, female mice, read-out: Concentration in Muscle
  concentration at 20 h: 170 ± 100 ng/g
Muscle (hind limb), 30 h, oral 500 mg·kg^−1, female mice, read-out: Concentration in Muscle
  concentration at 30 h: 20 ± 3 ng/g
Reproductive organs (uterus, fallopian tube and ovary), 1 h, oral 500 mg·kg^−1, female mice, read-out: Concentration in Reproductive organs
  concentration at 1 h: 880 ± 680 ng/g
Reproductive organs (uterus, fallopian tube and ovary), 4 h, oral 500 mg·kg^−1, female mice, read-out: Concentration in Reproductive organs
  concentration at 4 h: 2290 ± 1800 ng/g
Reproductive organs (uterus, fallopian tube and ovary), 8 h, oral 500 mg·kg^−1, female mice, read-out: Concentration in Reproductive organs
  concentration at 8 h: 23900 ± 11300 ng/g
Reproductive organs (uterus, fallopian tube and ovary), 12 h, oral 500 mg·kg^−1, female mice, read-out: Concentration in Reproductive organs
  concentration at 12 h: 13700 ± 10300 ng/g
Reproductive organs (uterus, fallopian tube and ovary), 20 h, oral 500 mg·kg^−1, female mice, read-out: Concentration in Reproductive organs
  concentration at 20 h: 1460 ± 1230 ng/g
Reproductive organs (uterus, fallopian tube and ovary), 30 h, oral 500 mg·kg^−1, female mice, read-out: Concentration in Reproductive organs
  concentration at 30 h: 360 ± 460 ng/g
spleen, 1 h, oral 500 mg·kg^−1, female mice, read-out: Concentration in Spleen
  concentration at 1 h: 40 ± 30 ng/g
spleen, 4 h, oral 500 mg·kg^−1, female mice, read-out: Concentration in Spleen
  concentration at 4 h: 430 ± 200 ng/g
spleen, 8 h, oral 500 mg·kg^−1, female mice, read-out: Concentration in Spleen
  concentration at 8 h: 480 ± 500 ng/g
spleen, 12 h, oral 500 mg·kg^−1, female mice, read-out: Concentration in Spleen
  concentration at 12 h: 200 ± 140 ng/g
spleen, 20 h, oral 500 mg·kg^−1, female mice, read-out: Concentration in Spleen
  concentration at 20 h: 310 ± 20 ng/g
spleen, 30 h, oral 500 mg·kg^−1, female mice, read-out: Concentration in Spleen
  concentration at 30 h: 10 ± 4 ng/g
brain, over 1-30 h, oral 500 mg·kg^−1, read-out: tissue/plasma concentration ratio range, brain
  Kp: 0.36 to 6.11
Fat (white adipose tissue), over 1-30 h, oral 500 mg·kg^−1, read-out: tissue/plasma concentration ratio range, fat
  Kp: 2.33 to 14
Heart / plasma, over 1-30 h, oral 500 mg·kg^−1, read-out: tissue/plasma concentration ratio range, heart
  Kp: 0.31 to 4.2
intestines, oral 500 mg·kg^−1, read-out: tissue/plasma concentration ratio, intestines
  Kp: > 100
kidney, over 1-30 h, oral 500 mg·kg^−1, read-out: tissue/plasma concentration ratio range, kidney
  Kp: 0.68 to 17.2
liver, over 1-30 h, oral 500 mg·kg^−1, read-out: tissue/plasma concentration ratio range, liver
  Kp: 0.18 to 17.4
lung, over 1-30 h, oral 500 mg·kg^−1, read-out: tissue/plasma concentration ratio range, lung
  Kp: 0.72 to 6.84
Muscle (hind limb), over 1-30 h, oral 500 mg·kg^−1, read-out: tissue/plasma concentration ratio range, muscle
  Kp: 0.99 to 5.54
Reproductive organs (uterus, fallopian tube and ovary), over 1-30 h, oral 500 mg·kg^−1, read-out: tissue/plasma concentration ratio range, reproductive organs
  Kp: 6.05 to 30.4
spleen, over 1-30 h, oral 500 mg·kg^−1, read-out: tissue/plasma concentration ratio range, spleen
  Kp: 0.28 to 8.55
stomach, oral 500 mg·kg^−1, read-out: tissue/plasma concentration ratio, stomach
  Kp: > 1000
Oral 500 mg·kg^−1, female mice
  amount in the intestine and its contents, of the intake: less than 5%
  amount in the stomach and its contents, of the intake: 16.79%
Over 1-30 h, oral 500 mg·kg^−1
  concentration range in fat: 0.18–11.15
  concentration range in the brain: 0.01–0.95
  concentration range in the heart: 0.04–0.85
  concentration range in the kidney: 0.07–8.16
  concentration range in the liver: 0.01–3.01
  concentration range in the lung: 0.08–2.34
  concentration range in the muscle: 0.02–1.42
  concentration range in the reproductive organs: 0.36–23.90
  concentration range in the spleen: 0.01–0.48
